This is an account of results in publication PMC6210068 (ACS Omega, 2018).

Bounds are passed on as bounds.

Test [1] concerns the target DOR (Homo sapiens, UniProt P41143). In words: Radioligand binding at DOR.
The target in test [2] is T1, KOR (Homo sapiens, UniProt P41145). Briefly: biochemical. The conditions noted are these: for Ki: KOR. It counts as binding.
Test [3] deals with rat kidney TSPO (Rattus norvegicus, UniProt P16257). Briefly: Radioligand binding at TSPO. The conditions noted are these: for Ki: TSPO, rat TSPO, [3H]PK11195.
Sequence of rat kidney TSPO (P16257 whole entry): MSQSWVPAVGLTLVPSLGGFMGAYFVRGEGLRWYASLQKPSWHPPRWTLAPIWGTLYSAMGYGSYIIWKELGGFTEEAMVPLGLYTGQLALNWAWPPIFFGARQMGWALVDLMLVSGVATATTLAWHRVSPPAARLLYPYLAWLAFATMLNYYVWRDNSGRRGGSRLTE
The target in test [4] is hDAT (Homo sapiens, UniProt Q01959). Briefly: Radioligand binding at DAT. The settings on record: 10 μM; [3H]WIN35428; negative = enhanced radioligand binding.
Sequence of hDAT (Q01959 whole entry): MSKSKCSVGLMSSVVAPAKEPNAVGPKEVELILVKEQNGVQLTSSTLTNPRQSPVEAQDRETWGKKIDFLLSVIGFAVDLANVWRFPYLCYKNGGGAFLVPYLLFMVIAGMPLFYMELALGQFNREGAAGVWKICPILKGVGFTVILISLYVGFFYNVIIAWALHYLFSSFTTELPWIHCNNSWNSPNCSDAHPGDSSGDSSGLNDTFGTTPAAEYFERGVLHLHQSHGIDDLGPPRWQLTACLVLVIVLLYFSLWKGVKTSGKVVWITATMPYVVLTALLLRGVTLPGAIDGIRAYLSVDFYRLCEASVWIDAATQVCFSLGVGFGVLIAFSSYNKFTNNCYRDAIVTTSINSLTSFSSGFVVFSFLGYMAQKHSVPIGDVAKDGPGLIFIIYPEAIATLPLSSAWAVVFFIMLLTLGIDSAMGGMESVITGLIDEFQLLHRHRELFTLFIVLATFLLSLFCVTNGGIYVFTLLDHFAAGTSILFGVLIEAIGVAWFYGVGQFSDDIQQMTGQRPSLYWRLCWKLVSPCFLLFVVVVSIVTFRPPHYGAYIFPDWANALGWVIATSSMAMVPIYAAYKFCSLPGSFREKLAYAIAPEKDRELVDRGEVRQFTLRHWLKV
For test [5], the target named is T2, hA3AR (Homo sapiens, UniProt P0DMS8).
T2 sequence (P0DMS8 1-318): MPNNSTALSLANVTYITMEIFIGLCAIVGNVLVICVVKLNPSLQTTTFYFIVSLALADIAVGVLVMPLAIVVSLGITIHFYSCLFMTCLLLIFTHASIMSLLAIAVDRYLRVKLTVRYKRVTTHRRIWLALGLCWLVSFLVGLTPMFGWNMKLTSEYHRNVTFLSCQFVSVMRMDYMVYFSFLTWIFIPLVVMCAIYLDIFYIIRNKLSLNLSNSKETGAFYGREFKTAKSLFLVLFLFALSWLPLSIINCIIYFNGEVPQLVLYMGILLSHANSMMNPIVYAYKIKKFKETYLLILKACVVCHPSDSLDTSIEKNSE
Briefly: A3AR binding.

Test [6] addresses T3, 5HT2C serotonin receptor (Homo sapiens, UniProt P28335).
T3 sequence (P28335 33-458): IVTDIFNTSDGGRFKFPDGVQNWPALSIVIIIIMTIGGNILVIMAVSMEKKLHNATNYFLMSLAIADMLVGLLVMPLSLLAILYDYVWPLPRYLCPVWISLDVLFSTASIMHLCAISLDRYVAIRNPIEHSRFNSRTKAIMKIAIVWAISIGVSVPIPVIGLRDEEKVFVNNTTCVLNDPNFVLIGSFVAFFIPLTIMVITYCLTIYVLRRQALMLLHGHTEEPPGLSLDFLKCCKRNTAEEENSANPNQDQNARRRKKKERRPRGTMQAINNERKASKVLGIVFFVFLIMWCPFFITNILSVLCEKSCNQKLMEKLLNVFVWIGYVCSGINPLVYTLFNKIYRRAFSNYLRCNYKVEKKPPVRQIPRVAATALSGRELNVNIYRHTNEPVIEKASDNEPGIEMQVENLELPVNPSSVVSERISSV
In words: PDSP off-target binding, 5HT2C.

Test [7] deals with MOR (Homo sapiens, UniProt P35372). Briefly: biochemical. The settings on record: for MOR, inhibition of radioligand binding at 10 μM (class): Table 2. It counts as binding.
Sequence of MOR (P35372 whole entry): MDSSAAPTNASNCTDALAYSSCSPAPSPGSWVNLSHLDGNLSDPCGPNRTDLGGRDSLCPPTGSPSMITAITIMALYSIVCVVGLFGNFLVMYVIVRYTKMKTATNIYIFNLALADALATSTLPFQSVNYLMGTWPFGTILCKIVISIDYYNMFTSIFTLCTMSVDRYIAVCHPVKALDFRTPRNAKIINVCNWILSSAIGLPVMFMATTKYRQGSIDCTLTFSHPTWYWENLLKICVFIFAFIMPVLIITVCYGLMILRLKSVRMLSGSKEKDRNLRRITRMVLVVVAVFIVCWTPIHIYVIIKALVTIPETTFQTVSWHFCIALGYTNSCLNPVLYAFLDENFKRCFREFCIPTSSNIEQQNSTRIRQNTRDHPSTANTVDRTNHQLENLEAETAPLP
Test [8] has as its target T4, mA3AR (Mus musculus, UniProt Q61618).
T4 sequence (Q61618 1-319): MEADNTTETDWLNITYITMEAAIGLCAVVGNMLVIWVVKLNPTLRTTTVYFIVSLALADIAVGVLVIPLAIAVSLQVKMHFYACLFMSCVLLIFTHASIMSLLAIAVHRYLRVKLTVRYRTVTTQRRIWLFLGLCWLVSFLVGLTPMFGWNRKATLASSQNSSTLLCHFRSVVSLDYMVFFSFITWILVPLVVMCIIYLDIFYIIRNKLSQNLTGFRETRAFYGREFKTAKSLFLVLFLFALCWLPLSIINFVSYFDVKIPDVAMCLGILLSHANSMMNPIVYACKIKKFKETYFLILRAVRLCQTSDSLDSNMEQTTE
The settings on record: ref Tosh et al. 2,3,6,34,35,37; cited from earlier work.

In test [9] the target is T4, mA3AR. In words: Mouse A3AR binding.
The target of test [10] is T5, hA1AR (Homo sapiens, UniProt P30542).
T5 sequence (P30542 1-326): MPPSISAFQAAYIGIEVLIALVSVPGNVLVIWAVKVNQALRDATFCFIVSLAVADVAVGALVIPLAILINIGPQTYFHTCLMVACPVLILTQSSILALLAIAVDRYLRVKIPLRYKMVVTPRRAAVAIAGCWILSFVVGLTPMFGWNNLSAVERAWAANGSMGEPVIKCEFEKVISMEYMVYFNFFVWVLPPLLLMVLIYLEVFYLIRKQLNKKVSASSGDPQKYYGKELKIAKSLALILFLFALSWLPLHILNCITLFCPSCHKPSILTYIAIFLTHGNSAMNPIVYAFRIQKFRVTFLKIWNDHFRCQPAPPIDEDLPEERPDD
Briefly: hA1AR binding. The settings on record: read-out: binding inhibition at hA1AR (% at 10 μM).

Test [11] addresses hA2AAR (Homo sapiens, UniProt P29274). Briefly: hA2AAR binding.
Test [12] concerns the target T6, mA1AR (Mus musculus, UniProt Q60612).
T6 sequence (Q60612 1-326): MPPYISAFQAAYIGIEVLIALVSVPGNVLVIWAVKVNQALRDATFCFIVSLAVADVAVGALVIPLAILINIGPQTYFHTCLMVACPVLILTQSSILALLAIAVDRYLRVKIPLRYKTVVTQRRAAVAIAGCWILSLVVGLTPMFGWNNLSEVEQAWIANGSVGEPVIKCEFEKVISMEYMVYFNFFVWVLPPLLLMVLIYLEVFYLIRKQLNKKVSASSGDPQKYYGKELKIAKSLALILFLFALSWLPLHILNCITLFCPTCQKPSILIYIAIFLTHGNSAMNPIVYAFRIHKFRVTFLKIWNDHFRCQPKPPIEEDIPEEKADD
Briefly: mA1AR binding. The conditions noted are these: read-out: mA1AR binding, % inhibition at 10 μM.

Test [13] addresses mA2AAR (Mus musculus, UniProt Q60613). In words: mA2AAR binding. The settings on record: read-out: mA2AAR binding, % inhibition at 10 μM.
The target in test [14] is T7, rat σ2 receptor (Rattus norvegicus, UniProt Q5U3Y7).
T7 sequence (Q5U3Y7 1-176): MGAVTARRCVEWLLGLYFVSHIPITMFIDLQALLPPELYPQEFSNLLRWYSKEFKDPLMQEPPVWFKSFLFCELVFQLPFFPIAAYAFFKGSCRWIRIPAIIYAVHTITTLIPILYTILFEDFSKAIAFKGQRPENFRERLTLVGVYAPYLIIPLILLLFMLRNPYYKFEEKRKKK
In words: PDSP binding, σ2 receptor.

Test [15] has as its target hNOP (Homo sapiens, UniProt P41146). Briefly: Radioligand binding at NOP.
Test [16] addresses T1, KOR. It counts as cell-based. The conditions noted are these: 1 μM 98.
The target in test [17] is T1, KOR. Briefly: cell-based. It counts as cell-based.
Test [18] addresses 5HT2B serotonin receptor (Homo sapiens, UniProt P41595). Briefly: PDSP off-target binding, 5HT2B.
Setting [19] is: [3H]U69593, mean ± SEM, N = 2–4.

T1 sequence (P41145 whole entry): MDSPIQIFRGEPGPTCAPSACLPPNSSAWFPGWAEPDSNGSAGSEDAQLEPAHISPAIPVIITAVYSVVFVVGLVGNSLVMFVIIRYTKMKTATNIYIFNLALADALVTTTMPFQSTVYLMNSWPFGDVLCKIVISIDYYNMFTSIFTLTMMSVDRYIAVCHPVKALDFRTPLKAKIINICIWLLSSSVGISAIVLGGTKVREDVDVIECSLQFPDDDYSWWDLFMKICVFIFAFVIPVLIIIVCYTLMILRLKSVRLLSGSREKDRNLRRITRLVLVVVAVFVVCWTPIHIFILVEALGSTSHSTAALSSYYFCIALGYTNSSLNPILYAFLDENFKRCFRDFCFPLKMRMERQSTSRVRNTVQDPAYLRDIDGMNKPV
Sequence of mA2AAR (Q60613 whole entry): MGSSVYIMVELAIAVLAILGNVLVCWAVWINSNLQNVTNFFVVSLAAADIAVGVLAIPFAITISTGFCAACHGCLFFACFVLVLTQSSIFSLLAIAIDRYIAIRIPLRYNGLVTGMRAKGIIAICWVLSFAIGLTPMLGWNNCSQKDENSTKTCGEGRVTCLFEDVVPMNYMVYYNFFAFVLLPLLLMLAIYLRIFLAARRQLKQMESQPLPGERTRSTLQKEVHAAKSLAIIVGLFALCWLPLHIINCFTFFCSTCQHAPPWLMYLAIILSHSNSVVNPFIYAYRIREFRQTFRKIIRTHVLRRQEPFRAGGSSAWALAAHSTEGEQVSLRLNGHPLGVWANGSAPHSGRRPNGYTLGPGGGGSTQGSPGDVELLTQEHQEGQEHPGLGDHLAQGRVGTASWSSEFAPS
Sequence of DOR (P41143 whole entry): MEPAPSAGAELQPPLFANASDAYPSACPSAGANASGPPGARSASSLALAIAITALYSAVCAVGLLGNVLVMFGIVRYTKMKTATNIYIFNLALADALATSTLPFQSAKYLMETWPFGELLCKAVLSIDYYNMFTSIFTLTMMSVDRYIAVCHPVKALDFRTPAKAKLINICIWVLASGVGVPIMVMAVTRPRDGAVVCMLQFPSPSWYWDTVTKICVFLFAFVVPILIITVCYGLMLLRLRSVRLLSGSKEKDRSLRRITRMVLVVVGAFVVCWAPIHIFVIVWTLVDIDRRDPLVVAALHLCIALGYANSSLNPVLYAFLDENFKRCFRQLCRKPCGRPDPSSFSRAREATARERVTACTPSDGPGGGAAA
Sequence of hA2AAR (P29274 whole entry): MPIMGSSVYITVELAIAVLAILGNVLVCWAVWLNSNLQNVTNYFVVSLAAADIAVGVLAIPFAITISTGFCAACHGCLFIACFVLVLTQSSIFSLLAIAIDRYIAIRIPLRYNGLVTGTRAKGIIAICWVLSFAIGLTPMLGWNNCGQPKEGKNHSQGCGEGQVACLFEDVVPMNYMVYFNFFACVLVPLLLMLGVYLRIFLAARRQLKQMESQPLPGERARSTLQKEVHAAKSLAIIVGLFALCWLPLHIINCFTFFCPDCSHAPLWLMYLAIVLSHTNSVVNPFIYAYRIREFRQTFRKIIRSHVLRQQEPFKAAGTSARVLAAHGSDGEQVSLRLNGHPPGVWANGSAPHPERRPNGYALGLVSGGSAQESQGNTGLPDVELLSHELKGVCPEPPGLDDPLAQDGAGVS
Sequence of hNOP (P41146 whole entry): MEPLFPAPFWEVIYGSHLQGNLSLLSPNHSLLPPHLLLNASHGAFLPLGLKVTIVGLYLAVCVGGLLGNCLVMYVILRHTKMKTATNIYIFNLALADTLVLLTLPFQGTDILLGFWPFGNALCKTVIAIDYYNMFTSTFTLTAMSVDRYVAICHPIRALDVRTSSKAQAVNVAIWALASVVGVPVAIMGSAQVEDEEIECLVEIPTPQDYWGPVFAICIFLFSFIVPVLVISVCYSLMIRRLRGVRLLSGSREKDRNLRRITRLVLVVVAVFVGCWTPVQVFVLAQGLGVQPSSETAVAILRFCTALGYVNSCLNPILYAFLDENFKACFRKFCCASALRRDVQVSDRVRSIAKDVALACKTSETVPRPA
Sequence of 5HT2B serotonin receptor (P41595 whole entry): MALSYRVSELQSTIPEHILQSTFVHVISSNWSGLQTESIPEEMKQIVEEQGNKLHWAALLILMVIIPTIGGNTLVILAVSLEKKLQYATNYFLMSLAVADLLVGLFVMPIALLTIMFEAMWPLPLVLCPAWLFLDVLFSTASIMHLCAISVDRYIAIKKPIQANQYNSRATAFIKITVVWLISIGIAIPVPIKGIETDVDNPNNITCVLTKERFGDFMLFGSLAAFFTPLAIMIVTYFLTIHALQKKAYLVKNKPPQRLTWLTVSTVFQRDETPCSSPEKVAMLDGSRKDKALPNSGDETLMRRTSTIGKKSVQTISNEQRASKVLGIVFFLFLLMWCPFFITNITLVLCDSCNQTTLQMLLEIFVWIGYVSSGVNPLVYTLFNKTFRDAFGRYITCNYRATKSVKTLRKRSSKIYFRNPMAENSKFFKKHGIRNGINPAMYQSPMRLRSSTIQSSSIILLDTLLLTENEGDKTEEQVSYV

Usually Ki stands for a measure of affinity in units of concentration, obtained from inhibition or displacement. A low value points to higher affinity. For `CNc1nc(C#Cc2ccc(Cl)s2)nc2c1ncn2[C@H]1[C@H](O)[C@H](O)[C@]2(C(=O)NCCN)C[C@H]12` [compound 21], in test [1] (Table 1), the “DOR, inhibition of radioligand binding at 10 μM (class)” value (“DOR, inhibition of radioligand binding” for short) is “^f (<30% inhibition of radioligand binding at 10 μM)”. Further, the Ki was 2.79 µM in [2], greater than 10 µM in [3], 0.158 ± 0.008 µM in test [5] and 0.51 µM in test [6]. Moreover, the “DAT, inhibition, % of control at 10 μM” value in test [4] is “–136%”.

In the case of `CNc1nc(C#Cc2ccc(Cl)s2)nc2c1ncn2[C@H]1[C@H](O)[C@H](O)[C@]2(C(=O)OC)C[C@H]12` [compound 22], the “DOR, inhibition of radioligand binding” value in test [1] (Table 2) is “^d (<30% inhibition of radioligand binding at 10 μM)”. The same compound came in with a Ki in [2] (setting [19]) of 3.13 ± 0.3 µM. For the same compound, the “MOR, inhibition of radioligand binding at 10 μM (class)” value (“MOR, inhibition of radioligand binding” for short) in test [7] is given as “^c (30–50% inhibition of radioligand binding at 10 μM)”. In addition, in test [3] (Table 2), the “TSPO, inhibition of radioligand binding at 10 μM (class)” value (“TSPO, inhibition of radioligand binding” for short) was “^c (30–50% inhibition of radioligand binding at 10 μM)”. For the same compound, in test [4], the “DAT, inhibition, % of control at 10 μM” value is “–352%”. Moreover, the “A3AR binding, % at 10 μM (m)” value in test [8] was 36 ± 1%.

For orientation: inhibition means the relative decrease from the control value, in per cent. For `CCOC(=O)[C@@]12C[C@@H]1[C@@H](n1cnc3c(NC)cc(C#Cc4ccc(Cl)s4)nc31)[C@H](O)[C@@H]2O` [compound 26], in test [1] (Table 2), the “DOR, inhibition of radioligand binding” value is on record as “^c (30–50% inhibition of radioligand binding at 10 μM)”. For the same compound, the inhibition constant Ki is 0.806 ± 0.263 µM in test [2] (setting [19]); 3.81 ± 0.1 µM in test [3]; 0.0294 ± 0.0138 µM in test [5]; 0.828 µM in test [9]; 1.76 µM in test [14]. Also, the “MOR, inhibition of radioligand binding” value in [7] was “^c (30–50% inhibition of radioligand binding at 10 μM)”. The “DAT, inhibition, % of control at 10 μM” value in [4] is less than 10%. The inhibition at 10 µM in test [10] is 39%; in [11] (read-out: binding inhibition at hA2AAR (% at 10 μM)), 16%; in [12] it was 54%; in [13] it was 5%.

Take `CCCOC(=O)[C@@]12C[C@@H]1[C@@H](n1cnc3c(NC)nc(C#Cc4ccc(Cl)s4)nc31)[C@H](O)[C@@H]2O` [compound 30]: the “DOR, inhibition of radioligand binding” value in [1] (Table 2) is “^d (<30% inhibition of radioligand binding at 10 μM)”. For the same compound, the values for the inhibition constant Ki in test [2] (setting [19]) and in test [3] were 0.437 ± 0.167 µM and 1.16 ± 0.56 µM, respectively. Moreover, the “MOR, inhibition of radioligand binding” value in [7] was “^d (<30% inhibition of radioligand binding at 10 μM)”. Further, the “DAT, inhibition, % of control at 10 μM” value in test [4] is “–426%”. For the same compound, the figures for the inhibition at 10 µM in test [12] and in test [13] were 53% and 13%, respectively.

For `CNc1nc(C#Cc2ccc(Cl)s2)nc2c1ncn2[C@@H]1O[C@H](C(=O)OC)[C@@H](O)[C@H]1O` [compound 46], the “KOR, inhibition of radioligand binding at 10 μM (class)” value in test [2] (Table 3, 10 μM) is “^d (30–50% inhibition of radioligand binding at 10 μM)”. Moreover, in [4], the “DAT, inhibition, % of control at 10 μM” value is “–220%”. Further, the inhibition at 10 µM was found to be 62% in [12] and 12% in test [13].

Consider `O[C@@H]1[C@H](O)[C@@H]2C[C@@H]2[C@H]1n1cnc2c(NCc3cccc(Cl)c3)nc(C#Cc3ccccc3)nc21` [compound 47], for which the inhibition constant Ki in test [1] was 8 ± 1 µM; in test [15] it was greater than 10 µM; in [3], 1.64 ± 0.16 µM; in test [9] it was 0.299 µM; in test [11], 0.67 µM; in test [14], 2.73 µM. The “DAT, inhibition, % of control at 10 μM” value in test [4] amounted to 37%.

Regarding `CNc1nc(C#Cc2ccccc2)nc2c1ccn2[C@H]1[C@H](O)[C@H](O)[C@@H]2C[C@@H]21` [compound 54, (1R,2R,3S,4R,5S)-4-(4-(Methylamino)-2-(phenylethynyl)-7H-pyrrolo[2,3-d]pyrimidin-7-yl)bicyclo[3.1.0]hexane-2,3-diol], in test [1] (Table 5), the “DOR, inhibition of radioligand binding” value is “^d (30–50% inhibition of radioligand binding at 10 μM)”. Moreover, the figures for the inhibition constant Ki in test [2] (setting [19]), in test [7] and in test [5] were 1.12 ± 0.22 µM, 2.67 ± 0.28 µM and 0.0856 ± 0.012 µM, respectively. Further, in test [3] (Table 5), the “TSPO, inhibition of radioligand binding” value is on record as “^e (<30% inhibition of radioligand binding at 10 μM)”. Also, in [4], the “DAT, inhibition, % of control at 10 μM” value is on record as −58%. In test [5] (28 vs 24, 54 vs 49, 55 vs 51), the “reduction of hA3AR binding affinity by 7-deaza modification” value came to 16 fold. Besides, in test [16], the “inhibition of agonist 98 in βarrestin2 assay” value is on record as “did not inhibit”. Further, the “inhibition of agonist 98 in cAMP assay” value in test [17] (100 nM 98) is recorded as “did not inhibit”. In test [17] (CHO, read-out: inhibition of cAMP accumulation, % inhibition at 30 μM), the inhibition at 30 µM is 16%.

With `CCOC(=O)[C@@]12C[C@@H]1[C@@H](n1ccc3c(NC)nc(C#Cc4ccc(Cl)s4)nc31)[C@@H]1OC(C)(C)O[C@@H]12` [compound 77, Ethyl(3aR,3bS,4aS,5R,5aS)-5-(2-((5-chlorothiophen-2-yl)ethynyl)-4-(methylamino)-7H-pyrrolo[2,3-d]pyrimidin-7-yl)-2,2-dimethyltetrahydrocyclopropa[3,4]cyclopenta[1,2-d][1,3]dioxole-3b(3aH)-carboxylate], the Ki in [1] is 1.99 ± 1.02 µM; in test [2] (setting [19]), 0.052 ± 0.023 µM; in test [7], 1.53 ± 0.56 µM; in test [5], 1.65 ± 0.33 µM; in [18], 4.18 µM; in [6], 0.016 µM. Further, in test [3] (Table 2), the “TSPO, inhibition of radioligand binding” value is on record as “^d (<30% inhibition of radioligand binding at 10 μM)”. In addition, the “DAT, inhibition, % of control at 10 μM” value in [4] is given as “–20%”. Besides, in test [6], the “selectivity at 5HT2CR compared with 5HT2BR” value came to 260 fold.
